Measured values reported in patent US7759510B2, “Platinum complexes and methods of use” (University of South Florida, priority 2003, dated 2010).
Read-outs that look alike come from different tables or passages of the source.

System: A549 cells
Assay: MTT assay, percent survival of A549 cells
Format: cell-based
Experimental: 1. Prepare a suspension of A549 cells at 2×10^5 cells per mL in supplemented DMEM/F12 growth medium.
2. Plate 2×10^4 cells per well in a 96 well cell culture plate by adding 100 μL of stock suspension to each well.
3. For each platinum compound (already in solution), prepare a readily usable stock solution in DMEM/F12 medium.
4. For each compound generate triplicate trials of 0, 10, 20, 30, 40, 50, 60, and 70 μM concentration. This is achieved in situ by adding appropriate volumes of stock solution to each well along with the volume of untreated medium necessary to generate the desired concentration in a final volume of 200 μL.
5. Gently agitate plates to mix contents. Incubate at 37° C., 7% CO2 for 45 hours.
6. Add 20 μL of 5 mg/mL MTT solution (in PBS) to each well.
7. Gently agitate plates to mix contents and incubate an additional 3 hours to allow product development.
8. Remove plates from incubator and agitate to cause settling of formazan product.
9. Aspirate out liquid contents of each well using needle and syringe and discard.
10. Add 200 μL DMSO to each well to dissolve formazan product.
11. Agitate plates until all of the formazan product is in solution and no purple crystals remain on the bottom surface of the wells.
12. Read the absorbance of each well at […] using Varian software for Cary 50 UV-vis Spectrophotometer with fiber optic probe accessory.
(§1) MTT assays are used for the quantitative determination of cellular proliferation and activation and for the quantitation of in vitro tumor cell sensitivity to anti-cancer compounds. The assay is based on the cleavage of the yellow tetrazolium salt MTT into purple colored formazan by metabolically active cells. Solubilized formazan product can be photometrically quantitated using an ELISA plate reader. A decrease in the number of living cells results in a decrease in total metabolic activity which leads to a decrease in color formation. Platinum complexes of the present invention were tested in MTT assays using A549 cells to determine anti-cancer cell activity. […] FIGS. 1, 2, and 4 show percent survival versus platinum complex concentration in graphical form.
as §1, with “FIGS. 8, 9,” for “FIGS. 1, 2,”, “and 11” for “and 4”

SMILES: NC(=O)c1ccc(N)nc1 [6-Aminonicotinamide]
- IC50 (Homo sapiens, A549, read-out: Calculated IC 50 (uM concentration)): 53.1 µM
- Average Absorbance (Table 6, A549, 10 μM): 2.3742
- Percent Survival (Table 6, A549, 10 μM): 100.5548%
- Average Absorbance (Table 6, A549, 20 μM): 2.4321
- Percent Survival (Table 6, A549, 20 μM): 103.0071%
- Average Absorbance (Table 6, A549, 30 μM): 2.2814
- Percent Survival (Table 6, A549, 30 μM): 96.6245%
- Average Absorbance (Table 6, A549, 40 μM): 1.7213
- Percent Survival (Table 6, A549, 40 μM): 72.9025%
- Average Absorbance (Table 6, A549, 50 μM): 0.8618
- Percent Survival (Table 6, A549, 50 μM): 36.4999%
- Average Absorbance (Table 6, A549, 60 μM): 0.7739
- Percent Survival (Table 6, A549, 60 μM): 32.7771%
- Average Absorbance (Table 6, A549, 70 μM): 0.8536
- Percent Survival (Table 6, A549, 70 μM): 36.1526%
- Average Absorbance (Table 8, A549, 10 μM): 2.4711
- Percent Survival (Table 8, A549, 10 μM): 101.1544%
- Average Absorbance (Table 8, A549, 20 μM): 2.4672
- Percent Survival (Table 8, A549, 20 μM): 100.9947%
- Average Absorbance (Table 8, A549, 30 μM): 1.9896
- Percent Survival (Table 8, A549, 30 μM): 81.4442%
- Average Absorbance (Table 8, A549, 40 μM): 1.0963
- Percent Survival (Table 8, A549, 40 μM): 44.8770%
- Average Absorbance (Table 8, A549, 50 μM): 0.6485
- Percent Survival (Table 8, A549, 50 μM): 26.5463%
- Average Absorbance (Table 8, A549, 60 μM): 0.5811
- Percent Survival (Table 8, A549, 60 μM): 23.7873%
- Average Absorbance (Table 8, A549, 70 μM): 0.6294
- Percent Survival (Table 8, A549, 70 μM): 25.7645%

SMILES: CC(C)(C(=O)O)C(O)(C(=O)O)C(C)(C)C(=O)[O][Pt]([NH2])([NH2])([Cl])([Cl])[N+](=O)[O-] (stereo not drawn) [CPA-31]
- Average Absorbance (Table 1, A549, 10 μM): 2.4274
- Percent Survival (Table 1, A549, 10 μM): 102.8080%
- Average Absorbance (Table 1, A549, 20 μM): 2.3495
- Percent Survival (Table 1, A549, 20 μM): 99.5087%
- Average Absorbance (Table 1, A549, 30 μM): 2.3778
- Percent Survival (Table 1, A549, 30 μM): 100.7073%
- IC50 (Table 2, A549, extrapolated from incomplete data (10-40 uM; CPA-31 10-30 μM), outside the measured range, read-out: Calculated IC 50 (uM concentration)): 506 µM
- Average Absorbance (Table 3, A549, 10 μM): 2.5294
- Percent Survival (Table 3, A549, 10 μM): 103.5409%
- Average Absorbance (Table 3, A549, 20 μM): 2.3875
- Percent Survival (Table 3, A549, 20 μM): 97.7322%
- Average Absorbance (Table 3, A549, 30 μM): 1.7978
- Percent Survival (Table 3, A549, 30 μM): 73.5929%
- Average Absorbance (Table 3, A549, 40 μM): 0.8196
- Percent Survival (Table 3, A549, 40 μM): 33.5503%
- Average Absorbance (Table 3, A549, 50 μM): 0.6049
- Percent Survival (Table 3, A549, 50 μM): 24.7616%
- Average Absorbance (Table 3, A549, 60 μM): 0.6067
- Percent Survival (Table 3, A549, 60 μM): 24.8352%
- Average Absorbance (Table 3, A549, 70 μM): 0.6228
- Percent Survival (Table 3, A549, 70 μM): 25.4943%

SMILES: N.N.[Cl][Pt][Cl] [Cis-Pt, Cis-diammineoplatinum(II) dichloride, reference compound]
- Average Absorbance (Table 1, A549, 10 μM): 2.3196
- Percent Survival (Table 1, A549, 10 μM): 98.2423%
- Average Absorbance (Table 1, A549, 20 μM): 2.3228
- Percent Survival (Table 1, A549, 20 μM): 98.3779%
- Average Absorbance (Table 1, A549, 30 μM): 2.3526
- Percent Survival (Table 1, A549, 30 μM): 99.6400%
- Average Absorbance (Table 1, A549, 40 μM): 2.1315
- Percent Survival (Table 1, A549, 40 μM): 90.2757%
- Average Absorbance (Table 1, A549, 50 μM): 1.8447
- Percent Survival (Table 1, A549, 50 μM): 78.1288%
- Average Absorbance (Table 1, A549, 60 μM): 1.1039
- Percent Survival (Table 1, A549, 60 μM): 46.7536%
- Average Absorbance (Table 1, A549, 70 μM): 0.7118
- Percent Survival (Table 1, A549, 70 μM): 30.1470%
- IC50 (Table 2, A549, linear trend from percent survival vs. concentration data of Table 1, read-out: Calculated IC 50 (uM concentration)): 63.3 µM
- Average Absorbance (Table 3, A549, 10 μM): 2.4665
- Percent Survival (Table 3, A549, 10 μM): 100.9661%
- Average Absorbance (Table 3, A549, 20 μM): 2.4556
- Percent Survival (Table 3, A549, 20 μM): 100.5199%
- Average Absorbance (Table 3, A549, 30 μM): 2.2686
- Percent Survival (Table 3, A549, 30 μM): 92.8650%
- Average Absorbance (Table 3, A549, 40 μM): 1.7575
- Percent Survival (Table 3, A549, 40 μM): 71.9432%
- Average Absorbance (Table 3, A549, 50 μM): 1.2828
- Percent Survival (Table 3, A549, 50 μM): 52.5114%
- Average Absorbance (Table 3, A549, 60 μM): 0.7971
- Percent Survival (Table 3, A549, 60 μM): 32.6293%
- Average Absorbance (Table 3, A549, 70 μM): 0.6718
- Percent Survival (Table 3, A549, 70 μM): 27.5001%
- Average Absorbance (Table 4, A549, 10 μM): 0.5299
- Percent Survival (Table 4, A549, 10 μM): 83.1%
- Average Absorbance (Table 4, A549, 20 μM): 0.6575
- Percent Survival (Table 4, A549, 20 μM): 103.1%
- Average Absorbance (Table 4, A549, 30 μM): 0.497
- Percent Survival (Table 4, A549, 30 μM): 77.95%
- Average Absorbance (Table 4, A549, 40 μM): 0.4763
- Percent Survival (Table 4, A549, 40 μM): 74.69%
- Average Absorbance (Table 4, A549, 50 μM): 0.3644
- Percent Survival (Table 4, A549, 50 μM): 57.14%
- Average Absorbance (Table 4, A549, 60 μM): 0.2814
- Percent Survival (Table 4, A549, 60 μM): 44.13%
- Average Absorbance (Table 4, A549, 70 μM): 0.1854
- Percent Survival (Table 4, A549, 70 μM): 29.07%
- Average Absorbance (Table 6, A549, 10 μM): 2.3196
- Percent Survival (Table 6, A549, 10 μM): 98.2423%
- Average Absorbance (Table 6, A549, 20 μM): 2.3228
- Percent Survival (Table 6, A549, 20 μM): 98.3779%
- Average Absorbance (Table 6, A549, 30 μM): 2.3526
- Percent Survival (Table 6, A549, 30 μM): 99.6400%
- Average Absorbance (Table 6, A549, 40 μM): 2.1315
- Percent Survival (Table 6, A549, 40 μM): 90.2757%
- Average Absorbance (Table 6, A549, 50 μM): 1.8447
- Percent Survival (Table 6, A549, 50 μM): 78.1288%
- Average Absorbance (Table 6, A549, 60 μM): 1.1039
- Percent Survival (Table 6, A549, 60 μM): 46.7536%
- Average Absorbance (Table 6, A549, 70 μM): 0.7118
- Percent Survival (Table 6, A549, 70 μM): 30.1470%
- Average Absorbance (Table 8, A549, 10 μM): 2.4665
- Percent Survival (Table 8, A549, 10 μM): 100.9661%
- Average Absorbance (Table 8, A549, 20 μM): 2.4556
- Percent Survival (Table 8, A549, 20 μM): 100.5199%
- Average Absorbance (Table 8, A549, 30 μM): 2.2686
- Percent Survival (Table 8, A549, 30 μM): 92.8650%
- Average Absorbance (Table 8, A549, 40 μM): 1.7575
- Percent Survival (Table 8, A549, 40 μM): 71.9432%
- Average Absorbance (Table 8, A549, 50 μM): 1.2828
- Percent Survival (Table 8, A549, 50 μM): 52.5114%
- Average Absorbance (Table 8, A549, 60 μM): 0.7971
- Percent Survival (Table 8, A549, 60 μM): 32.6293%
- Average Absorbance (Table 8, A549, 70 μM): 0.6718
- Percent Survival (Table 8, A549, 70 μM): 27.5001%
- Average Absorbance (Table 9, A549, 10 μM): 0.5299
- Percent Survival (Table 9, A549, 10 μM): 83.1%
- Average Absorbance (Table 9, A549, 20 μM): 0.6575
- Percent Survival (Table 9, A549, 20 μM): 103.1096%
- Average Absorbance (Table 9, A549, 30 μM): 0.497
- Percent Survival (Table 9, A549, 30 μM): 77.95%
- Average Absorbance (Table 9, A549, 40 μM): 0.4763
- Percent Survival (Table 9, A549, 40 μM): 74.69%
- Average Absorbance (Table 9, A549, 50 μM): 0.3644
- Percent Survival (Table 9, A549, 50 μM): 57.14%
- Average Absorbance (Table 9, A549, 60 μM): 0.2814
- Percent Survival (Table 9, A549, 60 μM): 44.13%
- Average Absorbance (Table 9, A549, 70 μM): 0.1854
- Percent Survival (Table 9, A549, 70 μM): 29.07%
